According to paper PMC2730992 (Molecular and biochemical parasitology, 2009):

Experiments:
[1] = target: T1, Tb AdoMetDC/Tc Prozyme (Trypanosoma brucei, UniProt P50244); format: biochemical; conditions: 5 mM putrescine; allosteric activator; pH 8.0, 37 °C
T1 sequence (P50244 1-85): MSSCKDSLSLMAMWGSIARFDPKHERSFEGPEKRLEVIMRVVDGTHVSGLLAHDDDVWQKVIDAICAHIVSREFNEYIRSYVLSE
T1 sequence (P50244 86-370): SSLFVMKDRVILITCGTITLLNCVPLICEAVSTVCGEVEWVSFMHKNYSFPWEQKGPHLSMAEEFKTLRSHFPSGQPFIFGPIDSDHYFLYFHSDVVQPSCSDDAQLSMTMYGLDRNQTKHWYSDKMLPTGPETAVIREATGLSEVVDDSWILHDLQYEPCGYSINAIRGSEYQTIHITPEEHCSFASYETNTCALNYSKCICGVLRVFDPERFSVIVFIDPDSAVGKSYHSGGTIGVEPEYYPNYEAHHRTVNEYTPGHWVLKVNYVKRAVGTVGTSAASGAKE
T1 sequence (Q4DQQ6 1-326 partner): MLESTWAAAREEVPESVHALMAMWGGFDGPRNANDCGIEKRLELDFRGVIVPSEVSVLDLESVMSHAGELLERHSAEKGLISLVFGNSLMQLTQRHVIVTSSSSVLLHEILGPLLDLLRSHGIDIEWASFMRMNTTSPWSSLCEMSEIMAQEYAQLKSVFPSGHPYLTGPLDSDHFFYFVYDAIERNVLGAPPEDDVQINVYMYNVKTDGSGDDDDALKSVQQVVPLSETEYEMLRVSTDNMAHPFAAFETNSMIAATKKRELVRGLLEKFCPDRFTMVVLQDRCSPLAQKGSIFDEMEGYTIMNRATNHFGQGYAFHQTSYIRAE

[2] = target: T2, Tc AdoMetDC/Tb Prozyme (Trypanosoma cruzi, UniProt O76240); format: biochemical; conditions: 5 mM putrescine; allosteric activator; pH 8.0, 37 °C
T2 sequence (O76240 1-85): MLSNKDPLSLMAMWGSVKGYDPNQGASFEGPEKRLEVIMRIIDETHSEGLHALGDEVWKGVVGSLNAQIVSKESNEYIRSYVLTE
T2 sequence (O76240 86-370): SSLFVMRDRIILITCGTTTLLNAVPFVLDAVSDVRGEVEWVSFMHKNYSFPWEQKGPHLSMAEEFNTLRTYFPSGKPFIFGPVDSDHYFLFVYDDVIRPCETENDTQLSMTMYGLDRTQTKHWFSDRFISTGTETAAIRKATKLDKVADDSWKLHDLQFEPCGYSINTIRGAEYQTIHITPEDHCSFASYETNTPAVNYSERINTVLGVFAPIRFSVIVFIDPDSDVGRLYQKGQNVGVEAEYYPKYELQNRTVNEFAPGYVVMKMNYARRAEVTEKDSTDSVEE
T2 sequence (A5HNV6 1-325 partner): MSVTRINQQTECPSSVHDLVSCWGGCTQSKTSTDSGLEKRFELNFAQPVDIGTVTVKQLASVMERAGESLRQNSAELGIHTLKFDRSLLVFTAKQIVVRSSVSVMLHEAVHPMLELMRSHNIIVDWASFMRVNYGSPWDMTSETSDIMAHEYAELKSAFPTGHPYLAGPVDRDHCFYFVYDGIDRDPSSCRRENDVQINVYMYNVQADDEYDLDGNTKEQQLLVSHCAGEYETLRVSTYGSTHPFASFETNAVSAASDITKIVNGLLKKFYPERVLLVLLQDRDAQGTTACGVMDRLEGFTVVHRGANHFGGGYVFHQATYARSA

[3] = substrate: C[S+](CC[C@H](N)C(=O)O)C[C@H]1O[C@@H](n2cnc3c(N)ncnc32)[C@H](O)[C@@H]1O; test: purified protein; conditions: pH 8.0; 37.0 °C

Question: With `NCCCCN` [putrescine] as the molecule, how does the “activation of AdoMet decarboxylation, 14CO2 trapping” value [1] read?
Answer: The value was “when putrescine was included, both cross-species heterodimers were further activated”.

Question: And the “activation of AdoMet decarboxylation, 14CO2 trapping” value [2]?
Answer: The value was “when putrescine was included, both cross-species heterodimers were further activated”.

B1: Tc AdoMetDC/Tb Prozyme (Trypanosoma cruzi) (protein)
chain 1: T2 sequence (O76240 1-85)
chain 2: T2 sequence (O76240 86-370)
Question: With B1 as the molecule, how does the Km [3] read?
Answer: Its Km is 440 ± 14 µM.
